Results on 15 compounds are retold here after patent publication US20030105124A1, “Substituted benzolactam compounds” (priority 2000, published 2003).

For one data set, the target named is T1, Ca^2+ channel (Rattus norvegicus, UniProt P22002).
T1 construct: from tissue; host or cells: rat heart membrane preparation
The data set can be described thus: verapamil binding study in rat heart membrane preparation. The conditions noted are these: 0.25 nM [^3H]desmethoxyverapamil, read-out: verapamil binding study (Ca^2+ channel binding affinity, adverse effect). As for the experimental part: The adverse effect on Ca^2+ channel binding affinity is determined by verapamil binding study in rat heart membrane preparation. More specifically, verapamil binding study is performed as previously described by Reynolds et al., (J. Pharmacol. Exp. Ther., 237, 731, (1986)). Briefly, incubations are initiated by the addition of tissue to tubes containing 0.25 nM [^3H]desmethoxyverapamil and various concentrations of compounds (total volume; 1 ml). Nonspecific binding is defined as radioligand binding remaining in the presence of 3-10 μM methoxyverapamil.

In a further data set the test system is gerbils. The data set is described as follows: tapping test in gerbils. Type of data set: in vivo, gerbil. Conditions: % inhibition at 0.3 mg/kg scoring. As for the experimental part:
More specifically, gerbils are lightly anesthetized with ether and the skull surface is exposed. […] Following injection, gerbils are placed in 1 L beaker individually and monitored for repetitive hind paw tapping. Some compounds prepared in the following Examples were tested in accordance with these testing methods.

In data set [1] the target is T2, substance P receptor sites in IM-9 cells (Homo sapiens, UniProt P25103).
T2 construct: endogenous in cells; host or cells: IM-9 cells (human)
T2 sequence (P25103 whole entry): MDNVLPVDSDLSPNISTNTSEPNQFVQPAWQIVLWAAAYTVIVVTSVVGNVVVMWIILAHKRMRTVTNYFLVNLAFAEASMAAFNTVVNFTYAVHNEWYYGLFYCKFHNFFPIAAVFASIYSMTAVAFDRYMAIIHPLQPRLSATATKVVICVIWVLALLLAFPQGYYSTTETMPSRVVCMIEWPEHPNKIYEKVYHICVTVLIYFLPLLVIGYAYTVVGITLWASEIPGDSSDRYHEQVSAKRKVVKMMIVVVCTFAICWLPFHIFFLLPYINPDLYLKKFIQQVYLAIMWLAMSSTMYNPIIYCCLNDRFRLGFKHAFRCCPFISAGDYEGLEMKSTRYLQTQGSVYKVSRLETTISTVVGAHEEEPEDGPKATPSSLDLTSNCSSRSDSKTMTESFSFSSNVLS
The data set is described as follows: IM-9 binding assay (inhibition of [3H]SP binding). Conditions: human IM-9 cells, 0.56 nM [^3H]SP, 120 min at 4° C. Here is the method: The activity of the compounds of the present invention, as substance P antagonists, is determined by their ability to inhibit the binding of substance P at its receptor sites in IM-9 cells employing radioactive ligands. The substance P antagonist activity of the herein described compounds is evaluated by using the standard assay procedure described by D. G. Payan et al., as reported in J. Immunolocy, 133, 3260 (1984). This method essentially involves determining the concentration of the individual compound required to reduce by 50% the amount of radiolabeled substance P ligands at their receptor sites in said isolated cow tissues or IM-9 cells, thereby affording characteristic IC50 values for each compound tested. More specifically, inhibition of [^3H]SP binding to human IM-9 cells by compounds are determined in assay buffer (50 mM Tris-HCl (pH 7.4), 1 mM MnCl2, 0.02% bovine serum albumin, bacitracin (40 μg/ml), leupeptin (4 μg/ml), chymostatin (2 μg/ml) and phosphoramidon (30 μg/ml)). The reaction is initiated by the addition of cells to assay buffer containing 0.56 nM [^3H]SP and various concentrations of compounds (total volume; 0.5 ml) and allowed to incubate for 120 min at 4° C. […] Nonspecific binding is defined as the radioactivity remaining in the presence of 1 μM SP. The filters are placed into tubes and counted using liquid scintillation counter.

T1 sequence (P22002 whole entry, other chains not shown): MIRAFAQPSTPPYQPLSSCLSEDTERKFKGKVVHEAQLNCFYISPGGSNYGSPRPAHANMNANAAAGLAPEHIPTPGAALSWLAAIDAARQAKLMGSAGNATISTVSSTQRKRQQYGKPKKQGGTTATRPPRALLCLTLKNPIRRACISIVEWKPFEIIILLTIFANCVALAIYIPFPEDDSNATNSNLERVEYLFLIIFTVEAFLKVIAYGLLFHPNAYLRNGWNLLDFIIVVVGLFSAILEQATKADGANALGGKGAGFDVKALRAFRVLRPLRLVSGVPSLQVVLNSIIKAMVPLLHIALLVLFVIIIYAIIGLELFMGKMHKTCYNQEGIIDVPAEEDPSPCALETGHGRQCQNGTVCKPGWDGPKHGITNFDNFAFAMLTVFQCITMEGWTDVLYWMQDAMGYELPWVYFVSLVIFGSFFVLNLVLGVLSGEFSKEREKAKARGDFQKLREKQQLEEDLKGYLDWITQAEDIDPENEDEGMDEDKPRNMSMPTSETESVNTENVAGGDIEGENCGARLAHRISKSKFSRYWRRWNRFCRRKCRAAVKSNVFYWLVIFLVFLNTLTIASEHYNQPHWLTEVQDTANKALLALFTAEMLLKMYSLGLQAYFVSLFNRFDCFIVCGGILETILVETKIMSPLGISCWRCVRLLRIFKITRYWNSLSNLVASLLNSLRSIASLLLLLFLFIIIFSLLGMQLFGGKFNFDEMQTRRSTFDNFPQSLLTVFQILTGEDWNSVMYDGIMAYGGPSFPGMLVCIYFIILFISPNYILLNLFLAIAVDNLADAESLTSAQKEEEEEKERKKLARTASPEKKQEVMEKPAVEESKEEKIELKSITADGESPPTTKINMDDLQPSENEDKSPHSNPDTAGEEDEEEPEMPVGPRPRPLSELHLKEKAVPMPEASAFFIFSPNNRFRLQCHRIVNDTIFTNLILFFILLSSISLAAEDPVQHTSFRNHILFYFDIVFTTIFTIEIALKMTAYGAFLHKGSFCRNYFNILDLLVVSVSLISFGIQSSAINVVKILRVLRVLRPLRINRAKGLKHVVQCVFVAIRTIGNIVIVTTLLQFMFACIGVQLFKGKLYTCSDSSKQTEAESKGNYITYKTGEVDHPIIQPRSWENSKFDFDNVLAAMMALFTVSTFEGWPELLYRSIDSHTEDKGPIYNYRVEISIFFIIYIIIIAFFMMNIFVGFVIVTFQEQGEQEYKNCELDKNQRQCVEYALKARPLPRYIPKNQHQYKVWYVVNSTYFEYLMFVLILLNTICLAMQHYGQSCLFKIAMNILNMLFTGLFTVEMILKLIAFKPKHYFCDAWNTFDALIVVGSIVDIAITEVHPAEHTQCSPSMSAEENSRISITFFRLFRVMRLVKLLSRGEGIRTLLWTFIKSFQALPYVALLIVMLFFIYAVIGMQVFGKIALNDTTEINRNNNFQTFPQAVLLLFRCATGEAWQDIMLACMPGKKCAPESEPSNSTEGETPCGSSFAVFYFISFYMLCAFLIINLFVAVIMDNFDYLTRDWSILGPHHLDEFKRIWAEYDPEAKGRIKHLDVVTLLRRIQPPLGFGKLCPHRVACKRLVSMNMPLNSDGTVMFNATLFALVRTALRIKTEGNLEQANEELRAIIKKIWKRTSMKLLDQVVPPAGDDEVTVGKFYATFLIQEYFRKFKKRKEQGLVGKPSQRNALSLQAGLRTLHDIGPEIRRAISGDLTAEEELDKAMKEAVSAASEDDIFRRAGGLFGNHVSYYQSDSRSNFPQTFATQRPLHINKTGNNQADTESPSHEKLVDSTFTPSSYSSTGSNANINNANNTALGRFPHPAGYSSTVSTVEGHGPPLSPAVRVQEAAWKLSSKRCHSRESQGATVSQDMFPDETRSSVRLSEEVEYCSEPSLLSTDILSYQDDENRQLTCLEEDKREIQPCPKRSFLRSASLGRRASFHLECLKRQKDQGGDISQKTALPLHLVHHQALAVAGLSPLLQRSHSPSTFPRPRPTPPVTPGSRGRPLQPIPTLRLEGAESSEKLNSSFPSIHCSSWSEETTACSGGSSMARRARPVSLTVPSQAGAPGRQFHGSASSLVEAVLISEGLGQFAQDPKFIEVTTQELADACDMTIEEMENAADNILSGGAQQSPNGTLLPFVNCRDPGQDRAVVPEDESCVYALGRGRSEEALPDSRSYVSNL
T1 sequence (P54290 25-944 partner limits assumed, other chains not shown): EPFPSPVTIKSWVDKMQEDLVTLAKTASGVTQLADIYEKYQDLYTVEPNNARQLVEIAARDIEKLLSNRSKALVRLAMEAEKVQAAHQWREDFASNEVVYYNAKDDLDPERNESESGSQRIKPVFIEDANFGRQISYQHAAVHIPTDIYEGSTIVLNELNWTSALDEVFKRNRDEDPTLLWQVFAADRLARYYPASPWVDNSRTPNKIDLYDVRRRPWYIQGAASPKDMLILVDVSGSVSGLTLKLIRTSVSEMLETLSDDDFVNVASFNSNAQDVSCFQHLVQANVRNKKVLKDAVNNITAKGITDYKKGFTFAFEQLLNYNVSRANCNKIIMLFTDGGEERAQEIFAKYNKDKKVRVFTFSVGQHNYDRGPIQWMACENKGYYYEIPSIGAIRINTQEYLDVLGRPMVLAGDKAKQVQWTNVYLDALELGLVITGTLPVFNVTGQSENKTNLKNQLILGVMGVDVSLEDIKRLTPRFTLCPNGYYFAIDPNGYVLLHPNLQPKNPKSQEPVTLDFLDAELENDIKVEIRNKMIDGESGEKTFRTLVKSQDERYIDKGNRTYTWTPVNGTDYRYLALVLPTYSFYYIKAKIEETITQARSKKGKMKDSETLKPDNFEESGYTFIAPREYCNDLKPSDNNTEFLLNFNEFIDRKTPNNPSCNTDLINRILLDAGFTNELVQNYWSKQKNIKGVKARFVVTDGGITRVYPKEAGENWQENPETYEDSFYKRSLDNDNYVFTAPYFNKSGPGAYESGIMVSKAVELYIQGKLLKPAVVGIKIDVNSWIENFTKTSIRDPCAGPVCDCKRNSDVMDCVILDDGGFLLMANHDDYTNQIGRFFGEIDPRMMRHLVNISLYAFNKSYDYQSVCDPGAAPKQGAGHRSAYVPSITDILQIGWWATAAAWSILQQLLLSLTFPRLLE
T1 sequence (P54290 945-1091 partner limits assumed, other chains not shown): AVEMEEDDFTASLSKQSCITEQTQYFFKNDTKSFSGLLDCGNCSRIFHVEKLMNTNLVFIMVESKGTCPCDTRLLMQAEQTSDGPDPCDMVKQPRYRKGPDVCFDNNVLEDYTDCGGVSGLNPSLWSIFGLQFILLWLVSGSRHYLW

By melting point is commonly meant the temperature of the solid-liquid transition. As to `COc1cc2c(cc1CN[C@H]1CCCN[C@H]1c1ccccc1)N(CC(F)(F)F)C(=O)CC2.Cl.Cl`, the melting point lay within 243 to 245 °C. For the compound `COc1cc2ccc(=O)n(C)c2cc1CN[C@H]1C2CCN(CC2)[C@H]1C(c1ccccc1)c1ccccc1`, the melting point was in the range of 125 to 128 °C. In the case of `COc1cc2c(cc1CN[C@H]1CCCN[C@H]1c1ccccc1)C(C)(C)C(=S)N2C.Cl.Cl`, the melting point lay in the range of 234 to 236 °C. Compound `COc1cc2c(cc1CN[C@H]1CCCN[C@H]1c1ccccc1)N(C)C(=O)SC2.Cl.Cl` registered a melting point of 252 to 254 °C. Compound `COc1cc2c(cc1CN[C@H]1CCCN[C@H]1c1ccccc1)N(C)C(=O)CCC2.Cl.Cl` returned a melting point of 236 to 238 °C. Turning to `COc1cc2c(cc1CN[C@H]1CCCN[C@H]1c1ccccc1)N(C)C(=O)CC2.Cl.Cl` [Compound 21, (2S,3S)-3-(6-Methoxy-1-methyl-2-oxo-1,2,3,4-tetrahydroquinolin-7-yl)methylamino-2-phenylpiperidine Dihydrochloride], the melting point was in the range of 265 to 268 °C. For the same compound, on Ca^2+ channel, the IC50 was over 300 nM. Besides, the “[Sar^9, Met(O2)^11]substance P-induced tapping test, % inhibition” value with gerbils came to 52%. The same compound returned an IC50 in data set [1] of under 0.1 nM. With `COc1cc2c(cc1CN[C@H]1CCCN[C@H]1c1ccccc1)CCC(=S)N2C.Cl.Cl`, the melting point was 219 to 221 °C. For the compound `COc1cc2c(cc1CN[C@H]1CCCN[C@H]1c1ccccc1)CCC(=O)N2C.Cl.Cl`, the melting point lay within 243 to 244 °C.

`CN1C(=O)CCc2cc(OC(F)F)c(CN[C@H]3CCCN[C@H]3c3ccccc3)cc21.Cl.Cl` gave a melting point of 238 to 240 °C. Compound `COc1cc2c(cc1CN[C@H]1CCCN[C@H]1c1ccccc1)N(C(C)C)C(=O)CC2.Cl.Cl` returned a melting point of 257 to 260 °C. Take `COc1cc2c(cc1CN[C@H]1CCCN[C@H]1c1ccccc1)C(C(F)(F)F)CC(=O)N2C.Cl.Cl` (stereo partly drawn): the melting point lay within 255 to 256 °C. Compound `COc1cc2c(cc1CN[C@H]1C3CCN(CC3)[C@H]1C(c1ccccc1)c1ccccc1)N(C)C(=O)CC2` had a melting point of 136 to 139 °C. For `COc1cc2c(cc1CN[C@H]1CCCN[C@H]1c1ccccc1)N(C)C(=S)CC2.Cl.Cl`, the melting point is 245 to 246 °C. Turning to `COc1cc2ccc(=O)n(C)c2cc1CN[C@H]1CCCN[C@H]1c1ccccc1.Cl.Cl`, the melting point fell in the range of 260 to 263 °C.

As to `COc1cc2c(cc1CN[C@H]1CCCN[C@H]1c1ccccc1)N(C)C(=O)OC2.Cl.Cl`, the melting point fell in the range of 235 to 237 °C.
